# Experimental data as given in US20250145630A1, “POLYMORPHS OF A PYRIDINYLIMIDAZO[1,2-B]PYRIDAZINE” (Cardurion Pharmaceuticals, Inc., priority 2023, published 2025).
# Tests used:
# [1] = system: CaMKII; conditions: CaMKII inhibitor, US publication no. 20220098207; cited from earlier work
# [2] = Competitive slurrying of free base Forms A, B and C; format: physicochemical
# Method: Competitive slurries were carried out at 20° C. and 60° C. using the following procedure: 1.5 mL slurries of Formula (I) were prepared in t-BME, acetone, ethanol, and 2-Me THF at 60° C. in 2 mL screw cap vials. The slurries were syringe filtered (0.45 μm PTFE filter) after ca. 1 hour to obtain saturated Formula (I) solutions. Ca. 0.6 mL of saturated solution was added to ca. 10 mg of free base Forms A, B, and C to form slurries. The experiments were agitated at either ambient temperature (ca. 20° C.) and 60° C. for 48 h.
# After 48 h the slurries were isolated by centrifugation (nylon, 0.22 μm) and analyzed by XRPD. Where mixtures were observed competitive slurrying was continued until mixtures were no longer observed (21 days).
# [3] = Storage stability of Formula (I) Form C (long-term and accelerated); format: physicochemical; conditions: for Chemical Purity Assay: anhydrous; for Crystallinity: to Form C
# Method: Formula (I) Form C was evaluated for stability (Table 16 and Table 17). The Form C was stored in polyethylene double bags sealed with Nylon lock ties, and inside a capped polyethylene container at Wilmington PharmaTech Company. The storage conditions were long-term condition 25° C./60% RH, or accelerated condition 40° C./75% RH. The samples were analyzed for appearance, assay, related substances, chiral purity, water content and crystallinity.
# [4] = Dynamic vapor sorption (DVS); format: physicochemical
# Method: Approximately 10-20 mg of sample was placed into a mesh vapor sorption balance pan and loaded into a DVS Intrinsic or Advantage dynamic vapor sorption balance by Surface Measurement Systems. The sample was subjected to a ramping profile from 40-90% relative humidity (RH) at 10% increments, maintaining the sample at each step until a stable weight had been achieved (dm/dt 0.004%, minimum step length 30 minutes, maximum step length 200 or 500 minutes) at 25° C. After completion of the sorption cycle, the sample was dried using the same procedure to 0% RH and then a second sorption cycle back to 40% RH. Two cycles were performed. The weight change during the sorption/desorption cycles were plotted, allowing for the hygroscopic nature of the sample to be determined.
# [5] = Seven day stability of Formula (I) Form C; format: physicochemical
# [6] = ambient temperature and humidity
compound,measurement,setting,value
"COc1ccnc(-c2cnc3ccc(-c4ccc(F)c(O[C@@H](C)Cn5cnnn5)c4)nn23)c1C#N [Example 321, (S)-2-(6-(3-((1-(1H-tetrazol-1-yl)propan-2-yl)oxy)-4-fluorophenyl)imidazo[1,2-b]pyridazin-3-yl)-4-methoxynicotinonitrile]",IC50,[1],< 10 nM
"COc1ccnc(-c2cnc3ccc(-c4ccc(F)c(O[C@@H](C)Cn5cnnn5)c4)nn23)c1C#N [Formula (I) Form C, (S)-2-(6-(3-((1-(1H-tetrazol-1-yl)propan-2-yl)oxy)-4-fluorophenyl)imidazo[1,2-b]pyridazin-3-yl)-4-methoxynicotinonitrile]",Time until Form C was only detected polymorph,"[2]; 60° C., 2-Me THF",2 days
same,Time until Form C was only detected polymorph,"[2]; 60° C., Ethanol",2 days
same,Time until Form C was only detected polymorph,"[2]; 60° C., acetone",2 days
same,Time until Form C was only detected polymorph,"[2]; 60° C., t-BME",15 days
same,relative stability of free base polymorphs,"[2]; all solvents tested, 20° C. and 60° C.",most stable polymorph
same,Time until Form C was only detected polymorph,"[2]; ambient (ca. 20° C.), 2-Me THF",9 days
same,Time until Form C was only detected polymorph,"[2]; ambient (ca. 20° C.), Ethanol",8 days
same,Time until Form C was only detected polymorph,"[2]; ambient (ca. 20° C.), acetone",2 days
same,Time until Form C was only detected polymorph,"[2]; ambient (ca. 20° C.), t-BME",21 days
same,Chiral Purity,"[3]; 25° C./60% RH, 0 months",>99.9 area %
same,Description,"[3]; 25° C./60% RH, 0 months",Off-white
same,Related Substances: Impurity #1,"[3]; 25° C./60% RH, 0 months",0.05%
same,Related Substances: Impurity #2,"[3]; 25° C./60% RH, 0 months",0.18%
same,Total Impurities,"[3]; 25° C./60% RH, 0 months",0.23%
same,Water,"[3]; 25° C./60% RH, 0 months",0.29%
same,Chemical Purity Assay,"[3]; 25° C./60% RH, 0 months",100.1 wt %
same,Crystallinity,"[3]; 25° C./60% RH, 0 months",Conforms
same,Chiral Purity,"[3]; 25° C./60% RH, 12 months",>99.9 area %
same,Description,"[3]; 25° C./60% RH, 12 months",Off-white
same,Related Substances: Impurity #1,"[3]; 25° C./60% RH, 12 months",0.05%
same,Related Substances: Impurity #2,"[3]; 25° C./60% RH, 12 months",0.18%
same,Total Impurities,"[3]; 25° C./60% RH, 12 months",0.23%
same,Water,"[3]; 25° C./60% RH, 12 months",0.32%
same,Chemical Purity Assay,"[3]; 25° C./60% RH, 12 months",99.4 wt %
same,Crystallinity,"[3]; 25° C./60% RH, 12 months",Conforms
same,Chiral Purity,"[3]; 25° C./60% RH, 24 months",>99.9 area %
same,Description,"[3]; 25° C./60% RH, 24 months",Off-white
same,Related Substances: Impurity #1,"[3]; 25° C./60% RH, 24 months",0.05%
same,Related Substances: Impurity #2,"[3]; 25° C./60% RH, 24 months",0.18%
same,Total Impurities,"[3]; 25° C./60% RH, 24 months",0.23%
same,Water,"[3]; 25° C./60% RH, 24 months",0.35%
same,Chemical Purity Assay,"[3]; 25° C./60% RH, 24 months",99.4 wt %
same,Crystallinity,"[3]; 25° C./60% RH, 24 months",Conforms
same,"B. Unidentified Impurities (RRT: %), first listed","[3]; 40° C./75% RH, 0 months",0.07%
same,"B. Unidentified Impurities (RRT: %), second listed","[3]; 40° C./75% RH, 0 months",0.05%
same,Chiral Purity,"[3]; 40° C./75% RH, 0 months",>99.9 area %
same,Description,"[3]; 40° C./75% RH, 0 months",Off-white
same,Related Substances: Impurity #1,"[3]; 40° C./75% RH, 0 months",0.09%
same,Related Substances: Impurity #2,"[3]; 40° C./75% RH, 0 months",0.19%
same,Related Substances: Impurity #3,"[3]; 40° C./75% RH, 0 months",<0.05%
same,Total Impurities,"[3]; 40° C./75% RH, 0 months",0.40%
same,Water,"[3]; 40° C./75% RH, 0 months",0.36%
same,Chemical Purity Assay,"[3]; 40° C./75% RH, 0 months",99.6 wt %
same,Crystallinity,"[3]; 40° C./75% RH, 0 months",Conforms
same,"B. Unidentified Impurities (RRT: %), first listed","[3]; 40° C./75% RH, 6 months",0.06%
same,"B. Unidentified Impurities (RRT: %), second listed","[3]; 40° C./75% RH, 6 months",0.06%
same,Chiral Purity,"[3]; 40° C./75% RH, 6 months",>99.9 area %
same,Description,"[3]; 40° C./75% RH, 6 months",Off-white
same,Related Substances: Impurity #1,"[3]; 40° C./75% RH, 6 months",0.08%
same,Related Substances: Impurity #2,"[3]; 40° C./75% RH, 6 months",0.19%
same,Related Substances: Impurity #3,"[3]; 40° C./75% RH, 6 months",0.05%
same,Total Impurities,"[3]; 40° C./75% RH, 6 months",0.44%
same,Water,"[3]; 40° C./75% RH, 6 months",0.15%
same,Chemical Purity Assay,"[3]; 40° C./75% RH, 6 months",99.3 wt %
same,Crystallinity,"[3]; 40° C./75% RH, 6 months",Conforms
same,"B. Unidentified Impurities (RRT: %), first listed","[3]; 40° C./75% RH, 12 months",0.06%
same,Chiral Purity,"[3]; 40° C./75% RH, 12 months",>99.9 area %
same,Description,"[3]; 40° C./75% RH, 12 months",Off-white
same,Related Substances: Impurity #1,"[3]; 40° C./75% RH, 12 months",0.08%
same,Related Substances: Impurity #2,"[3]; 40° C./75% RH, 12 months",0.19%
same,Related Substances: Impurity #3,"[3]; 40° C./75% RH, 12 months",<0.05%
same,Total Impurities,"[3]; 40° C./75% RH, 12 months",0.33%
same,Water,"[3]; 40° C./75% RH, 12 months",0.49%
same,Chemical Purity Assay,"[3]; 40° C./75% RH, 12 months",99.6 wt %
same,Crystallinity,"[3]; 40° C./75% RH, 12 months",Conforms
same,hygroscopicity by DVS,[4]; 25° C.,slightly hygroscopic
same,Post-DVS XRPD analysis,[4]; after DVS,Form C was retained
same,uptake (DVS),[4]; at 80% RH,0.3%
same,HPLC Purity,"[5]; 7 day, 25° C./60% RH",99.0 % area
same,XRPD Analysis,"[5]; 7 day, 25° C./60% RH",Form C
same,HPLC Purity,"[5]; 7 day, 40° C./75% RH",99.0 % area
same,XRPD Analysis,"[5]; 7 day, 40° C./75% RH",Form C
same,HPLC Purity,"[5]; 7 day, 80° C.",98.9 % area
same,XRPD Analysis,"[5]; 7 day, 80° C.",Form C
same,"HPLC analysis, change in purity after 7 day stability","[5]; 7 day, all conditions",no loss in purity
same,XRPD analysis after 7 day stability,"[5]; 7 day, all conditions",retained
same,Input Purity,[5]; before storage,98.8 % area
COc1ccnc(-c2cnc3ccc(-c4ccc(F)c(O[C@@H](C)Cn5cnnn5)c4)nn23)c1C#N.O=C(O)C(O)C(O)C(=O)O,form conversion on standing,[6],converted to L-tartaric acid co-crystal Form 2
